Measured values reported in US20200256860A1, “PRINTABLE HYDROGELS FOR BIOMOLECULE IMMOBILIZATION AND STABILIZATION” (priority 2019, published 2020).

Assays:
[1] = Aggregate size and polydispersity by dynamic light scattering; format: physicochemical; details: 100 μM solutions, DLS
Method: Following, to assess the capacity of the printed hydrogels to differentiate between specific and non-specific inhibition, the confirmed promiscuous inhibitors rottlerin and BIS IX (both kinase inhibitors) and tetraiodophenolphthalein (TIPT, another established aggregate forming compound) were tested against TEM-1 β-lactamase (an isoform of β-lactamase) both in solution (modeling a conventional microplate assay) and using a printed hydrogel array. […] In this way, the size selectivity of the printed hydrogel layer excludes the promiscuous inhibitors from accessing the enzyme encapsulated in the hydrogel and thus avoids the false positive hits observed in solution assays. […] Intensity distributions are measured using dynamic light scattering (normalized to maximum intensity).

TEM-1 β-lactamase [2] = target: T1, TEM-1 β-lactamase (Escherichia coli, UniProt P62593); format: biochemical; details: promiscuous aggregating inhibitors
T1 sequence (P62593 24-286 limits assumed): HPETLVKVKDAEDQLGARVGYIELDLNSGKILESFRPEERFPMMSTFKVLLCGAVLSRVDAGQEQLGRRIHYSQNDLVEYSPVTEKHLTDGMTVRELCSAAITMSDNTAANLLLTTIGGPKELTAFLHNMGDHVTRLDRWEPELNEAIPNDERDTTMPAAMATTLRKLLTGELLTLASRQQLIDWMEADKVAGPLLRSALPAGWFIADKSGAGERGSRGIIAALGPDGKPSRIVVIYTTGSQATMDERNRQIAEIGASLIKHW

TEM-1 β-lactamase [3] = target: T1, TEM-1 β-lactamase; format: biochemical; details: promiscuous aggregating inhibitors, printed hydrogel array, starting concentration 100 μM
Method: Images were taken with a Canon DSLR camera (operated in manual focus mode without flash) after 25 min. […] Extracted images were inverted and converted to 8 bit grayscale images. […] Calculation of IC50 values was carried out in OriginPro by plotting the calculated percentage inhibition against the added inhibitor concentration.
Intensity distributions are measured using dynamic light scattering (normalized to maximum intensity).

[4] = Long-term stability studies (storage at room temperature); format: physicochemical; details: hydrogel-entrapped enzyme, at least three months
Method: Printed enzyme samples were stored in a closed, dark container at room temperature for time periods ranging from 7 days up to 3 months. Image acquisition and analysis was performed as described previously for the entrapment and proteinase K degradation studies. The intensity of each sample was measured and presented as a ratio of the corresponding control image (freshly printed).

proteinase K = proteinase K (Parengyodontium album, UniProt P06873); experiment: Protease protection studies; format: physicochemical; details: 2 hours
Chain of proteinase K (P06873 106-384, species assumed): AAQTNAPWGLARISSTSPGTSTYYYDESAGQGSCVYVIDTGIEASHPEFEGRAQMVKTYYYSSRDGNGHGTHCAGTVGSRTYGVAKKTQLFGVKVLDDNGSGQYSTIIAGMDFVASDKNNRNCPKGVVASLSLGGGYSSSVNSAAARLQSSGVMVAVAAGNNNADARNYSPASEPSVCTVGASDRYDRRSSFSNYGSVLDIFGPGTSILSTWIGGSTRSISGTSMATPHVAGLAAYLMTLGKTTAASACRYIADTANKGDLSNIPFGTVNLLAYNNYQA
Method: 10 μL of a 2 mg/mL proteinase K solution (prepared in 10 mM PBS and 1 mM CaCl2) was pipetted onto the printed enzyme samples both with and without hydrogel encapsulation. The samples were incubated in a closed container for 2 hours at room temperature, after which substrate solutions were pipetted onto the treated samples at the volumes listed in Table 1. Image acquisition and analysis was performed as described for the entrapment studies. The intensity of each sample was measured and presented as a ratio of the corresponding control image (untreated with protease).

Molecule | Aggregate size [1] | Polydispersity [1] | Inhibition of β-lactamase in the solution-based assay (TEM-1 β-lactamase [2]) | Inhibition of β-lactamase in the hydrogel-based assay (TEM-1 β-lactamase [3]) | Activity retained after storage [4] | Activity retained after proteinase K (proteinase K; enzyme printed directly on nitrocellulose without hydrogel (printed alone)) | Activity retained after proteinase K (proteinase K; enzyme printed with POH in the absence of gel formation)
Cn1cc(C2=C(c3cn(CCCSC(=N)N)c4ccccc34)C(=O)NC2=O)c2ccccc21 [BIS IX] | 365 ± 9 nm | 0.36 ± 0.02 | inhibited β-lactamase | no specific inhibition | – | – | –
alkaline phosphatase | – | – | – | – | ~100% | ~40% | > 80%
CC(=O)c1c(O)c(C)c(O)c(Cc2c(O)c3c(c(C(=O)/C=C/c4ccccc4)c2O)OC(C)(C)C=C3)c1O [Rottlerin, rottlerin] | 188 ± 1 nm | 0.24 ± 0.01 | inhibited β-lactamase | no specific inhibition | – | – | –
